# Reference: patent publication US20240016774A1, “IMPLANTABLE DEPOTS FOR LOCALIZED, SUSTAINED, CONTROLLED RELEASE OF THERAPEUTIC AGENTS TO TREAT CANCER AND RELATED CONDITIONS” (Foundry Therapeutics, Inc., priority 2020, published 2024)
# Assay: in vitro drug release (elution) in PBS at 37° C.
# Assay type: physicochemical
# Conditions: docetaxel powder, milled vs unmilled
# Method: Using docetaxel as the example drug, and 10:10:80 PEG10K:PLGA5050:Doce as the baseline formulation for comparison, we show below various novel formulations that can increase in vitro drug elution rates as tested in PBS at 37° C. 10:10:80 PEG10K:PLGA5050:Doce was the formulation that was evaluated in our preclinical studies. Average cumulative drug release % values with linear trend line from the first 14 days were plotted, as shown in FIG. 114. • Baseline=PEG:PLGA:Doce 10:10:80 Rod • Fast=PEG:PLGA:Doce 50:10:40 Rod • Faster=PEG:Doce 60:40 Rod • Raw docetaxel powder, milled or unmilled • Fastest=PEG:Doce 1:1 Particles
# The mechanism of how each of these novel formulations can achieve increased in vitro drug release rate compared to the baseline 10:10:80 PEG10K:PLGA5050:Doce formulation is explained below. We have developed multiple formulations with tunable drug release rates that takes advantage of either decreasing hydrophobicity (by increasing PEG content) or introducing predominantly molecularly dispersed drug into the polymer matrix.
structure (smiles),measurement,value
CC(=O)O[C@@]12CO[C@@H]1C[C@H](O)[C@@]1(C)C(=O)[C@H](O)C3=C(C)[C@@H](OC(=O)[C@H](O)[C@@H](NC(=O)OC(C)(C)C)c4ccccc4)C[C@@](O)([C@@H](OC(=O)c4ccccc4)[C@H]21)C3(C)C [docetaxel],dissolution rate after milling,does not significantly increase dissolution rate even after milling
